Data as given in ChEMBL document CHEMBL5543094, “Exploration of P1 and P4 modifications of nirmatrelvir: Design, synthesis, biological evaluation, and X-ray structural studies of SARS-CoV-2 Mpro inhibitors” (Eur J Med Chem, 2024).
The source made the active and inactive calls. The calls are words filed in the database; no cut-off is given here.

Columns and labels:
[1] = target: Replicase polyprotein 1ab (Severe acute respiratory syndrome coronavirus 2, UniProt P0DTD1); assay: Inhibition of N-terminal hexa-histidine tagged SARS-CoV-2 main protease expressed in Escherichia coli BL21 (DE3) using HiLyte Fluor 488TM-ESATLQSGLRKAK-QXL520TM-NH2 as substrate by FRET assay
SARS-CoV-2 [2] = assay: (§1) Antiviral activity against SARS-CoV-2 infected in African green monkey Vero E6 cells assessed as reduction in viral replication pre-infected with cells for 1 hr followed by compound treatment and measured after 3 days by RT-qPCR analysis; type: functional, organism-based; conditions: Severe acute respiratory syndrome coronavirus 2, Vero C1008
SARS-CoV-2 [3] = assay: as §1, with “Potency index, ratio of nirmatrelvir EC50 to test compound EC50 for antiviral” for “Antiviral”; type: functional, Severe acute respiratory syndrome coronavirus 2; conditions: time 3 day
SARS-CoV-2 [4] = assay: Antiviral activity against SARS-CoV-2 WK-521 infected in African green monkey VeroE6/TMPRSS2 cells assessed as reduction in virus infectivity at 10 to 100 uM by immunocytochemistry analysis; type: functional, organism-based; conditions: Severe acute respiratory syndrome coronavirus 2, dose 10-100 µM
SARS-CoV-2 [5] = assay: Antiviral activity against SARS-CoV-2 WK-521 infected in African green monkey VeroE6/TMPRSS2 cells assessed as reduction in virus infectivity at 1 uM by immunocytochemistry analysis; type: functional, organism-based; conditions: Severe acute respiratory syndrome coronavirus 2

Row | Structure (SMILES) | Ki [1] | EC50 (SARS-CoV-2 [2]) | Ratio EC50 (SARS-CoV-2 [3]) | Activity (SARS-CoV-2 [4]) | Activity (SARS-CoV-2 [5])
1 | CC(C)(C)[C@H](NC(=O)C(Cl)(Cl)Cl)C(=O)N1C[C@H]2[C@@H]([C@H]1C(=O)N[C@H](C#N)C[C@@H]1CCNC1=O)C2(C)C | 0.2 nM | 1600 nM |  |  | 
2 | CC(C)(C)[C@H](NC(=O)C(F)(F)F)C(=O)N1C[C@H]2[C@@H]([C@H]1C(=O)N[C@H](C#N)C[C@@H]1CCCNC1=O)C2(C)C | 0.04 nM | 260 nM | 7 | Active | 
3 | CC(C)(C)[C@H](NC(=O)c1ccccc1)C(=O)N1C[C@H]2[C@@H]([C@H]1C(=O)N[C@H](C#N)C[C@@H]1CCNC1=O)C2(C)C | 36.9 nM | 17000 nM |  |  | 
4 | CC(C)(C)[C@H](NC(=O)OCc1cccnc1)C(=O)N1C[C@H]2[C@@H]([C@H]1C(=O)N[C@H](C#N)C[C@@H]1CCNC1=O)C2(C)C | 0.09 nM | 35 nM |  |  | 
5 | CC(=O)N[C@H](C(=O)N1C[C@H]2[C@@H]([C@H]1C(=O)N[C@H](C#N)C[C@@H]1CCNC1=O)C2(C)C)C(C)(C)C | 0.44 nM | 4000 nM |  |  | 
6 | CC(C)(C)[C@H](NC(=O)OCc1ccccn1)C(=O)N1C[C@H]2[C@@H]([C@H]1C(=O)N[C@H](C#N)C[C@@H]1CCNC1=O)C2(C)C | 32.2 nM | 29700 nM |  |  | 
7 | CCC(CC)COC(=O)[C@H](C)N[P@](=O)(OC[C@H]1O[C@@](C#N)(c2ccc3c(N)ncnn23)[C@H](O)[C@@H]1O)Oc1ccccc1 |  | 3200 nM |  |  | 
8 | CC(C)(C)[C@H](NC(=O)OCc1cccnc1)C(=O)N1C[C@H]2[C@@H]([C@H]1C(=O)N[C@H](C#N)C[C@@H]1CCCNC1=O)C2(C)C | 0.094 nM | 3400 nM |  |  | 
9 | CC(C)(C)[C@H](NC(=O)OCc1ccncc1)C(=O)N1C[C@H]2[C@@H]([C@H]1C(=O)N[C@H](C#N)C[C@@H]1CCCNC1=O)C2(C)C | 7.8 nM | 27100 nM |  |  | 
10 | CC(C)(C)[C@H](NC(=O)OCc1ccncc1)C(=O)N1C[C@H]2[C@@H]([C@H]1C(=O)N[C@H](C#N)C[C@@H]1CCNC1=O)C2(C)C | 0.49 nM | 40100 nM |  |  | 
11 | CC(C)(C)NC(=O)N[C@H](C(=O)N1C[C@H]2[C@@H]([C@H]1C(=O)N[C@H](C#N)C[C@@H]1CCNC1=O)C2(C)C)C(C)(C)C |  | 100000 nM |  |  | 
12 | CC(C)(C)[C@H](NC(=O)C(Cl)(Cl)Cl)C(=O)N1C[C@H]2[C@@H]([C@H]1C(=O)N[C@H](C#N)C[C@@H]1CCCNC1=O)C2(C)C | 1.1 nM | 270 nM | >7 |  | 
13 | CC(C)(C)[C@H](NC(=O)C(F)(F)F)C(=O)N1C[C@H]2[C@@H]([C@H]1C(=O)N(C(=O)C(F)(F)F)[C@H](C#N)C[C@@H]1CCNC1=O)C2(C)C | 32300 nM | 100000 nM |  |  | 
14 | CC(C)(C)C(=O)N[C@H](C(=O)N1C[C@H]2[C@@H]([C@H]1C(=O)N[C@H](C#N)C[C@@H]1CCNC1=O)C2(C)C)C(C)(C)C | 22.1 nM | 2300 nM |  |  | 
15 | CC(C)(C)[C@H](NC(=O)OCc1ccccc1)C(=O)N1C[C@H]2[C@@H]([C@H]1C(=O)N[C@H](C#N)C[C@@H]1CCNC1=O)C2(C)C | 0.025 nM | 290 nM |  |  | 
16 | CC(C)(C)[C@H](NC(=O)C(F)(F)F)C(=O)N1C[C@H]2[C@@H]([C@H]1C(=O)N[C@H](C#N)C[C@@H]1CCNC1=O)C2(C)C |  |  |  | Active | inactive
